PubChem BioAssay AID302 (DTP/NCI, 2004)
“And” between values parts separate entries of the source, which are not always exact repeats. Identical values can stand only once. Toxic doses and inconclusive results are not listed. The calls were made as follows: active = survival T/C of 150% or more; inactive = T/C below 125% in these data. Starred links: 1 amine or outer side, 2 acyl side, 3 side chain; linkers in the order of their positions; H or OH if unused. Positions of bridges follow the written chain, without caps; N, C: chain ends. Non-standard residues stand in square brackets, D forms with d. Residues, ends and D or L forms follow the SMILES beside them. Chains are numbered I, II in the order given. Actinocin(9to1) = Cc1c2oc3c(C)ccc(C(=O)[*:1])c3nc-2c(C(=O)[*:2])c(N)c1=O; aThr = C[C@H](O)[C@H](N)C(=O)O; NMeV = CN[C@H](C(=O)O)C(C)C; Sar = CNCC(=O)O

Tested on: BALB/c mice, Madison 109 lung carcinoma i.m., survival
Assay: NCI In Vivo Anticancer Drug Screen. Data for tumor model Madison 109 Lung Carcinoma (intramuscular) in BALB/CM mice
Conditions: endpoint: median survival time, higher = longer survival
Experimental: The antitumor activity of compounds was measured in mice bearing transplantable tumors. Survival or tumor size were measured and the results are expressed as the measurement made in the treated group (T) divided by the measurement made in the vehicle treated control group (C). The tumor model used in this assay is Madison 109 Lung Carcinoma (intramuscular) in BALB/CM mice

[1] = dose: 25.0 mg/kg/injection, schedule: Q01DX009 (ip), vehicle: saline with Tween-80
[2] = dose: 50.0 mg/kg/injection, schedule: Q01DX009 (ip), vehicle: saline with Tween-80
[3] = dose: 100.0 mg/kg/injection, schedule: Q01DX009 (ip), vehicle: saline with Tween-80
[4] = dose: 200.0 mg/kg/injection, schedule: Q01DX009 (ip), vehicle: saline with Tween-80
[5] = dose: 400.0 mg/kg/injection, schedule: Q01DX009 (ip), vehicle: saline with Tween-80
[6] = dose: 100.0 mg/kg/injection, schedule: Q01DX009 (ip), vehicle: saline
[7] = dose: 200.0 mg/kg/injection, schedule: Q01DX009 (ip), vehicle: saline
[8] = dose: 800.0 mg/kg/injection, schedule: Q01DX009 (ip), vehicle: saline with Tween-80
[9] = dose: 1600.0 mg/kg/injection, schedule: Q01DX009 (ip), vehicle: saline with Tween-80
[10] = dose: 2.0 mg/kg/injection, schedule: Q01DX009 (ip), vehicle: saline
[11] = dose: 4.0 mg/kg/injection, schedule: Q01DX009 (ip), vehicle: saline
[12] = dose: 8.0 mg/kg/injection, schedule: Q01DX009 (ip), vehicle: saline
[13] = dose: 16.0 mg/kg/injection, schedule: Q01DX009 (ip), vehicle: saline
[14] = dose: 32.0 mg/kg/injection, schedule: Q01DX009 (ip), vehicle: saline
[15] = dose: 8.0 mg/kg/injection, schedule: Q01DX009 (ip), vehicle: saline with Tween-80
[16] = dose: 16.0 mg/kg/injection, schedule: Q01DX009 (ip), vehicle: saline with Tween-80
[17] = dose: 32.0 mg/kg/injection, schedule: Q01DX009 (ip), vehicle: saline with Tween-80
[18] = dose: 64.0 mg/kg/injection, schedule: Q01DX009 (ip), vehicle: saline with Tween-80
[19] = dose: 10.0 mg/kg/injection, schedule: Q01DX009 (ip), vehicle: saline with Tween-80
[20] = dose: 20.0 mg/kg/injection, schedule: Q01DX009 (ip), vehicle: saline with Tween-80
[21] = dose: 5.0 mg/kg/injection, schedule: Q01DX009 (ip), vehicle: saline with Tween-80

Measured: T/C

Nc1ccc(C(=O)O)c(O)c1
inactive: dose: 37.5 mg/kg/injection, schedule: Q01DX009 (ip), vehicle: saline with Tween-80 116 % of control | dose: 75.0 mg/kg/injection, schedule: Q01DX009 (ip), vehicle: saline with Tween-80 116 % of control | dose: 150.0 mg/kg/injection, schedule: Q01DX009 (ip), vehicle: saline with Tween-80 108 % of control | dose: 300.0 mg/kg/injection, schedule: Q01DX009 (ip), vehicle: saline with Tween-80 101 % of control

Nc1ccc(S(N)(=O)=O)cc1
inactive: [1] 95 % of control | [2] 108 % of control and 115 % of control | [3] 119 % of control | [4] 105 % of control and 119 % of control | [5] 102 % of control and 113 % of control

CN(C)C=O
inactive: dose: 12.5 mg/kg/injection, schedule: Q01DX009 (ip), vehicle: saline 102 % of control | dose: 25.0 mg/kg/injection, schedule: Q01DX009 (ip), vehicle: saline 101 % of control and 105 % of control | dose: 50.0 mg/kg/injection, schedule: Q01DX009 (ip), vehicle: saline 101 % of control and 115 % of control | [6] 92 % of control and 101 % of control and 120 % of control | [7] 96 % of control and 106 % of control | dose: 800.0 mg/kg/injection, schedule: Q01DX009 (ip), vehicle: saline 116 % of control and 120 % of control | dose: 1600.0 mg/kg/injection, schedule: Q01DX009 (ip), vehicle: saline 107 % of control

Nc1n[nH]c(N)n1
inactive: [3] 93 % of control | [4] 101 % of control | [5] 104 % of control | [8] 110 % of control | [9] 108 % of control

CC1=C(/C=C/C(C)=C/C=C/C(C)=C/CO)C(C)(C)CCC1
inactive: [10] 100 % of control | [11] 100 % of control | [12] 115 % of control | [13] 100 % of control | [14] 98 % of control | dose: 64.0 mg/kg/injection, schedule: Q01DX009 (ip), vehicle: saline 111 % of control

CCN(CC)CCCC(C)Nc1c2ccc(Cl)cc2nc2ccc(OC)cc12 (stereo not drawn)
inactive: [15] 106 % of control | [16] 114 % of control | [17] 104 % of control | [18] 107 % of control

CC(C)CC(NC(=O)C(O)C(N)Cc1ccccc1)C(=O)O (stereo not drawn)
inactive: dose: 10.0 micrograms/kg/injection, schedule: Q01DX005 (ip), vehicle: saline 101 % of control

CCOC(OCC)C(=O)OCC(=O)[C@]1(O)Cc2c(O)c3c(c(O)c2[C@@H](OC2CC(N)C(O)C(C)O2)C1)C(=O)c1c(OC)cccc1C3=O (stereo partly drawn)
inactive: dose: 0.12 mg/kg/injection, schedule: Q01DX009 (ip), vehicle: water 115 % of control | dose: 0.25 mg/kg/injection, schedule: Q01DX009 (ip), vehicle: water 124 % of control | dose: 0.5 mg/kg/injection, schedule: Q01DX009 (ip), vehicle: water 118 % of control

COc1ccc(C[C@H](N)C(=O)NC2C(CO)OC(n3cnc4c(N(C)C)ncnc43)C2O)cc1 (stereo partly drawn)
inactive: [15] 101 % of control | [16] 104 % of control | [17] 104 % of control | [18] 121 % of control

Cc1c2oc3c(C)ccc(C(=O)N[C@@H]4C(=O)N[C@H](C(C)C)C(=O)N5CCC[C@H]5C(=O)N(C)CC(=O)N(C)[C@@H](C(C)C)C(=O)O[C@H]4C)c3nc-2c(C(=O)N[C@@H]2C(=O)N[C@H](C(C)C)C(=O)N3CCC[C@H]3C(=O)N(C)CC(=O)N(C)[C@@H](C(C)C)C(=O)O[C@H]2C)c(N)c1=O (I: [aThr][dV]P[Sar][NMeV] / II: [aThr][dV]P[Sar][NMeV]; ester I:1-I:C, II:1-II:C; linker I:N-II:N via Actinocin(9to1))
inactive: dose: 0.01 mg/kg/injection, schedule: Q01DX009 (ip), vehicle: saline 111 % of control | dose: 0.02 mg/kg/injection, schedule: Q01DX009 (ip), vehicle: saline 116 % of control | dose: 0.05 mg/kg/injection, schedule: Q01DX009 (ip), vehicle: saline 101 % of control

CC(=O)OCC1OC(OC(C)=O)C(NC(=O)N(CCCl)N=O)C(OC(C)=O)C1OC(C)=O (stereo not drawn)
inactive: dose: 0.5 mg/kg/injection, schedule: Q01DX009 (ip), vehicle: saline with Tween-80 100 % of control and 111 % of control | dose: 1.0 mg/kg/injection, schedule: Q01DX009 (ip), vehicle: saline with Tween-80 92 % of control and 102 % of control and 109 % of control | dose: 2.0 mg/kg/injection, schedule: Q01DX009 (ip), vehicle: saline with Tween-80 94 % of control and 112 % of control | dose: 4.0 mg/kg/injection, schedule: Q01DX009 (ip), vehicle: saline with Tween-80 110 % of control and 118 % of control

CN(C)c1nc(N(C)C)nc(N(C)C)n1
inactive: dose: 12.5 mg/kg/injection, schedule: Q01DX009 (ip), vehicle: saline with Tween-80 104 % of control | [1] 90 % of control and 103 % of control | [2] 97 % of control and 102 % of control | [3] 99 % of control

COc1cccc2c1C(=O)c1c(O)c3c(c(O)c1C2=O)CC(O)(C(=O)CO)CC3OC1CC(N)C(O)C(C)O1 (stereo not drawn)
inactive: [19] 100 % of control | [20] 108 % of control

O=[N+]([O-])c1ccc([N+](=O)[O-])c(Cl)c1
inactive: dose: 2.5 mg/kg/injection, schedule: Q01DX009 (ip), vehicle: saline with Tween-80 101 % of control | [21] 97 % of control | [19] 99 % of control

Nc1ncnc2c1ncn2C1OC(COP(=O)(O)O)C(O)C1O (stereo not drawn)
inactive: [6] 103 % of control and 107 % of control | [7] 102 % of control and 115 % of control | dose: 400.0 mg/kg/injection, schedule: Q01DX009 (ip), vehicle: saline 112 % of control

NC(C/[N+]([O-])=N/O)C(=O)O (stereo not drawn)
inactive: [10] 96 % of control | [11] 116 % of control | [12] 93 % of control | [13] 118 % of control | [14] 99 % of control

Cc1cn(C2CC(O)C(CO)O2)c(=O)[nH]c1=O (stereo not drawn)
inactive: [17] 94 % of control and 101 % of control | [18] 103 % of control and 108 % of control | [3] 108 % of control and 112 % of control | dose: 128.0 mg/kg/injection, schedule: Q01DX009 (ip), vehicle: saline with Tween-80 102 % of control and 105 % of control | [4] 100 % of control and 102 % of control | dose: 256.0 mg/kg/injection, schedule: Q01DX009 (ip), vehicle: saline with Tween-80 95 % of control and 97 % of control | [5] 101 % of control and 103 % of control | dose: 512.0 mg/kg/injection, schedule: Q01DX009 (ip), vehicle: saline with Tween-80 102 % of control and 103 % of control | [8] 106 % of control and 107 % of control | [9] 96 % of control and 99 % of control

O=[N+]([O-])c1cccc([N+](=O)[O-])c1Cl
inactive: [21] 101 % of control and 120 % of control | [19] 87 % of control and 99 % of control | [20] 120 % of control [middle of 4 runs] | dose: 40.0 mg/kg/injection, schedule: Q01DX009 (ip), vehicle: saline with Tween-80 114 % of control and 96 % of control and 120 % of control | dose: 80.0 mg/kg/injection, schedule: Q01DX009 (ip), vehicle: saline with Tween-80 90 % of control and 93 % of control and 121 % of control | dose: 160.0 mg/kg/injection, schedule: Q01DX009 (ip), vehicle: saline with Tween-80 104 % of control and 99 % of control and 119 % of control | dose: 320.0 mg/kg/injection, schedule: Q01DX009 (ip), vehicle: saline with Tween-80 87 % of control

CN(C)/N=N/c1nc[nH]c1C(N)=O
inactive: [1] 124 % of control | [2] 119 % of control | [3] 108 % of control

CC(=O)Nc1ccc(/C=N/NC(N)=S)cc1
inactive: [1] 106 % of control and 108 % of control | [2] 94 % of control and 108 % of control | [3] 92 % of control and 124 % of control | [4] 89 % of control | [5] 113 % of control and 114 % of control
